Test results from PubChem BioAssay (NCI).
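Tested at 5 concentrations; 48 h exposure; 96-well plates; endpoints linearly interpolated, else capped at highest concentration. Abbreviation: GI50, concentration required for 50% inhibition of growth. Definition used: TGI = concentration required for complete inhibition of growth.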

Assays:
Test in all cases: NCI-60 cell line screen, 48 h
NCI-H226 lung = tested on: NCI-H226 lung
SK-MEL-28 melanoma = tested on: SK-MEL-28 melanoma
ACHN renal = tested on: ACHN renal
NCI-H522 lung = tested on: NCI-H522 lung
SK-MEL-2 melanoma = tested on: SK-MEL-2 melanoma
UACC-257 melanoma = tested on: UACC-257 melanoma
COLO 205 colon = tested on: COLO 205 colon
UACC-62 melanoma = tested on: UACC-62 melanoma
SR leukemia = tested on: SR leukemia
MDA-MB-231 breast = tested on: MDA-MB-231 breast

Row | Structure (SMILES) | GI50 (NCI-H226 lung) [µM] | TGI (NCI-H226 lung) [µM] | GI50 (SK-MEL-28 melanoma) [µM] | TGI (SK-MEL-28 melanoma) [µM] | GI50 (ACHN renal) [µM] | TGI (ACHN renal) [µM] | GI50 (NCI-H522 lung) [µM] | TGI (NCI-H522 lung) [µM] | GI50 (SK-MEL-2 melanoma) [µM] | TGI (SK-MEL-2 melanoma) [µM] | GI50 (UACC-257 melanoma) [µM] | TGI (UACC-257 melanoma) [µM] | GI50 (COLO 205 colon) [µM] | TGI (COLO 205 colon) [µM] | GI50 (UACC-62 melanoma) [µM] | TGI (UACC-62 melanoma) [µM] | GI50 (SR leukemia) [µM] | TGI (SR leukemia) [µM] | GI50 (MDA-MB-231 breast) [µM] | TGI (MDA-MB-231 breast) [µM]
1 | Cn1cc(C2=C(c3cccc(Cl)c3)C(=O)NC2=O)c2ccccc21 | > 20.6 | > 25 | > 17.5 | > 25 | > 25 | > 25 | > 25 | > 25 | > 25 | > 25 | 5.46 | 17.7 | 5.65 | 14.4 | 5.19 | 12.7 | 13.9 | > 25 | > 12.6 | > 25
2 | CCN(CC)CCn1nc2c3c(cccc3c1=O)-c1ccccc1-2 | 1.18 | 2.58 | 2.56 | 15.6 |  |  | 2.21 | 9.84 | 3.79 | 13 | 1.96 | 10.7 | 1.86 | 10.2 | 1.98 | 7.81 | 0.896 | 8.98 | 4.92 | 19.4
3 | O=C(c1nc2ccccc2[nH]1)C1C(c2cccc([N+](=O)[O-])c2)C2CC3CCCCC3N2[C@@]12C(=O)Nc1cc(Cl)ccc12 (some centres not stated) | 1.59 | 3.48 | 1.81 | 3.7 | 2.23 | 7.2 | 1.67 | 4.38 |  |  | 1.9 | 6.09 |  |  | 1.5 | 3.2 | 2.23 | 9.25 | 1.49 | 3.17
4 | COc1ccc(C2C3=C(COC3=O)N(CCO)c3cc4c(cc32)CCC4)cc1OC (configuration not stated) | > 10.7 | > 50 | 0.697 | > 50 | 4.32 | > 50 | 0.514 |  |  |  | > 50 | > 50 | 0.533 | 7.71 | 0.318 | > 50 | 0.253 | > 50 | 2.52 | > 50
5 | Cc1c(-c2ccnc(N)n2)c2c(n1-c1ccccc1)C(=O)c1ccccc1C2=O |  |  | 41.8 | > 100 | 19.6 | 77.7 | 13.2 | 37.2 | 22.9 | 57.2 | 34.2 | 91.9 | 44 | > 100 | 27.2 | 77.2 | 1.01 | 3.84 | 19.7 | 63.3
6 | COC(=O)C1=C(C)NC(C)=C(C(=O)OC)C1c1ccccc1[N+](=O)[O-] | 87.6 | > 100 | > 100 | > 100 | 76.9 | > 100 | > 100 | > 100 | > 100 | > 100 |  |  | 89 | > 100 | 29.6 | > 100 | 34.7 | > 100 | 70.7 | > 100
7 | CO[C@H]1/C=C/C=C/C=C/C[C@H](OC(=O)[C@@H](C)NC(=O)C2CCCCC2)[C@H](C)[C@@H](O)/C(C)=C\CCC2=CC(=O)C=C(NC(=O)C1)C2=O | 0.157 | 0.797 | 0.102 | 0.49 | 0.223 | 1.31 | 0.104 | 0.823 | 0.131 | 0.715 |  |  | 0.116 | 0.736 | 0.0801 | 0.682 | 0.0561 | > 50 | 0.137 | 0.934
8 | NC(=S)c1cn(C2OC(CO)C(O)C2O)c2ncnc(N)c12 (configuration not stated) | 0.602 | > 21.1 | 0.112 | 0.483 | 0.229 |  | 0.168 | 0.554 | 0.175 | 0.605 | 0.166 | 0.571 |  |  | 0.124 | 0.406 | 0.0625 |  | 0.152 | > 100
9 | N#CCCCCCn1c2ccccc2c2c3c(c4c5ccccc5[nH]c4c21)C(=O)N(O)C3=O | 1.93 | 4.74 | 1.8 | 6.61 | 0.851 | 2.33 | 0.164 | 0.411 | 1.83 | 4.67 | 1.95 | 5.45 | 1.85 | 4.36 |  |  | 0.434 | > 100 | 1.78 | 5.32
10 | COC(=O)[C@@H](C)C[C@H](Cc1ccccc1)NC(=O)c1csc([C@@H](C[C@H](C(C)C)N(C)C(=O)[C@@H](NC(=O)CN(C)C)C2CC2)OC(C)=O)n1 | 0.554 | > 13.2 | 10.2 | > 16.5 | 0.0938 | > 16.5 | 0.0033 | 0.26 | 0.00701 | 0.149 |  |  | 0.0231 | 0.499 | 0.0112 | > 16.5 | 0.00165 | > 16.5 | 0.0858 | > 16.5
